Converted amounts (≈) assume the structure as drawn.

One data set can be described thus: Water solubility at 0°C. Type of data set: physicochemical. As to conditions: 0°C, H₂O. The protocol:
The cyclic oligosaccharide derivatives useful in the present invention are highly hydrophilic and therefore very water soluble. A highly hydrophilic character probably is important to allow interaction with cellular surfaces. The hydrophilic activity is likely roughly indicated by the affinity to water, as measured by water solubility. It is important to measure the same at 0°C since at higher temperatures the most suitable derivative have solubilities so high that meaningful measurements are difficult.

For a further data set, the system named is HIV-2. Put plainly: HIV-2 induced syncytia assay, ROD-2 infected cells cocultured with H9 target cells. In kind it is cell-based. As to conditions: HIV-2, number and size of syncytia. The protocol: For the assay of HIV-1 fusion, Supt T1 cells were used as target cells. They fuse rapidly when cocultured with HIV-1 (H9/IIIb) producing cell lines. For the assay of HIV-2 mediated cell fusion, H9 cells were used as target cells. They fuse rapidly when cocultured with HIV-2 (CEMROD-2) producing cell lines. HIV infected cells were plated in 96 well plates (10⁴ cells/well in RPMI 1640 + 10% FCS) and incubated with or without dilution of compounds for 30 minutes at 37°C. Target cells are then added 5 x 10⁵/well and the number of syncytia are qualitatively determined after the incubation periods described in the text. […]

For data set [1], the system named is HIV-1. Description: HIV-1 induced syncytia assay, IIIb infected H9 cells cocultured with Supt-1 target cells. In kind it is cell-based. The conditions noted are these: for number of syncytia formed: HIV-1, number and size of syncytia. The protocol: For the assay of HIV-1 fusion, Supt T1 cells were used as target cells. They fuse rapidly when cocultured with HIV-1 (H9/IIIb) producing cell lines. For the assay of HIV-2 mediated cell fusion, H9 cells were used as target cells. They fuse rapidly when cocultured with HIV-2 (CEMROD-2) producing cell lines. HIV infected cells were plated in 96 well plates (10⁴ cells/well in RPMI 1640 + 10% FCS) and incubated with or without dilution of compounds for 30 minutes at 37°C. Target cells are then added 5 x 10⁵/well and the number of syncytia are qualitatively determined after the incubation periods described in the text.
In a series of additional experiments, analysis of HIV-1 induced syncytia was performed by coculturing H9 cells infected with the IIIb isolate with uninfected Supt-1 (a human CD4+ T cell line) cells as targets. […]

Data set [2] relates to HIV-1. Description: Viral RNA analysis by dot blot. Type of data set: cell-based. The conditions noted are these: target cells infected in the presence of compound, 1 mM, 72 hours post-infection. The method, then:
Virus particles were incubated with target cells in the presence or absence of […] of β-CD-14S. At 72 hours post infection, the cells were washed and dot blot assays were performed to determine the presence or absence of viral RNA production. In (A), target cells were infected in the presence of sulfated β-cyclodextrin (lane A), in the absence of cyclodextrins (lane B), or in the presence of unsubstituted β-cyclodextrin (lane C). 1/2 dilutions of cells are from left to right starting with 10⁶ cell/well utilized. In (B), virally infected cells (+) or uninfected cells (-) were assayed for their ability to produce viral RNA by dot blot analysis. CD = infected cells incubated with 1 mM of β-CD-14S. 1/2 dilutions of cells are from top to bottom starting with 10⁶ cell/well.
Virus treated cells were grown in tissue culture and harvested for assay at 72 hrs. post-infection. The cell concentrations were then adjusted to 1 x 10⁶ cells/m1 with phosphate buffered saline and spotted directly onto prewetted gene screen utilizing a dot blot apparatus. The filter was then fixed in 3% NaC1, 10 mM NaH₂PO₄, (pH 7.2) containing 1% gluteraldehyde at 4°C for 1 hr. The fixed blot was then rinsed three times with proteolytic buffer (50mM EDTA, 0.1 M Tris-HC1 (pH 8.0), 20 µg/ml proteinase K) for 30 minutes at 37°C. The filter was air dried until being probed. A Sall-Xho1 probe derived from the pIIIenv1 plasmid (a generous gift of Dr. J. Sodrofsky) and encoding the envelope region of the HXB2, HIV-1 virus was labeled by the random primer method using standard technology and hybridized to the filter as previously described (Weiner et al., 1986, Cell Immunol. 100:197).
To determine if the cyclodextrins were interfering with steps relevant to viral replication, the ability of these compounds to inhibit viral nucleic acid synthesis was determined. Virus particles were incubated with target cells in the presence or absence of 1 mM of β-CD-14S. At 72 hours post-infection, the cells were washed and dot blot assays were performed to determine the presence or absence of viral RNA production. […]

The subject of data set [3] is HTLV-IIIb cell free virus. Description: Reverse transcriptase assay of HIV infectivity, cell free virus on target cells, 10 day incubation. The conditions noted are these: 1/2 dilutions from 2.5 mM, result in words. Type of data set: cell-based, HIV-1. The method, then: Figure 2 illustrates the effects of cyclodextrin and cyclodextrin derivatives on HIV infectivity as determined by reverse transcriptase activity. Samples assayed are (A) untreated control cells, (B) β-cyclodextrin unsubstituted ring, (C) partially sulfated β-cyclodextrin ring, (D) propylated β-cyclodextrin ring, (E) sulfated β-cyclodextrin ring, and (F) methylated β-cyclodextrin ring. Numbers indicate 1/2 dilutions of test compounds with 1 = 2.5 mM concentration of compound.
Virus infected cells were pelleted by centrifugation and 50 µl of culture suprenatant was collected from each well for assay. Culture supernatant (25 µl) was plated in 96 well round bottomed plates and 50 µl of transcriptase cocktail was added to each well. Cocktail is 50 mM Tris-HC1, pH 8.0, 20 mM DTT, 0.6 mM MnC1₂, 60 mM NaC1, 0.05% NP-40, 5 µg/ml dt (oligodeoxythymidilic acid), 10 µg/ml poly A (polyriboadenylic acid), 10 µM dTTP, 1 Ci/mm ³²P dTTP. Plates were then incubated for 60 minutes at 37°C. After incubation samples were spotted onto Whatman DEAE-81 paper, washed and analyzed by counting or direct autoradiography.
The ability of cyclodextrins to inhibit HIV infection was assessed in vitro utilizing reverse transcriptase assays as described Section 6.1.2, supra. HTLV-IIIb cell free virus stocks were inoculated onto target cells in the presence or absence of the synthetic compounds.

In the case of `OC[C@H]1O[C@@H]2O[C@H]3[C@H](O)[C@@H](O)[C@@H](O[C@H]4[C@H](O)[C@@H](O)[C@@H](O[C@H]5[C@H](O)[C@@H](O)[C@@H](O[C@H]6[C@H](O)[C@@H](O)[C@@H](O[C@H]7[C@H](O)[C@@H](O)[C@@H](O[C@H]8[C@H](O)[C@@H](O)[C@@H](O[C@H]1[C@H](O)[C@H]2O)O[C@@H]8CO)O[C@@H]7CO)O[C@@H]6CO)O[C@@H]5CO)O[C@@H]4CO)O[C@@H]3CO` [Beta-CD, β-cyclodextrin, reference compound], the solubility in the data set “Water solubility at 0°C” came out at 7000 µg/mL (≈ 6.17 mM). The “number of syncytia formed” value in the data set with HIV-2 (1.3 mM), with HIV-2 (2.5 mM), in the data set with HIV-2 (.01 mM), in the data set on HIV-2 (.02 mM), in the data set with HIV-2 (.04 mM) and in the data set on HIV-2 (.08 mM) was 4 L each time. The “number of syncytia formed” value in the data set with HIV-2 (.16 mM), in the data set with HIV-2 (.32 mM), in the data set on HIV-2 (.63 mM), with HIV-1 [1] (1.3 mM), with HIV-1 [1] (2.5 mM) and in the data set with HIV-1 [1] (.01 mM) was 4 L throughout. Moreover, the “number of syncytia formed” value with HIV-1 [1] (.02 mM), with HIV-1 [1] (.04 mM), in the data set on HIV-1 [1] (.08 mM), in the data set on HIV-1 [1] (.16 mM), with HIV-1 [1] (.32 mM) and in the data set on HIV-1 [1] (.63 mM) was 4 L in each case. Moreover, the “inhibiting syncytia formation of HIV-1” value in the data set with HIV-1 [1] (result in words) is “as ineffective as media alone”. Further, in the data set with HIV-1 [2], the “HIV-1 specific RNA” value is “substantial viral RNA was detected”. Also, the “inhibition of viral infectivity (reverse transcriptase activity)” value in data set [3] is on record as “no inhibition of viral infectivity”.

As a reminder, the solubility is the dissolved amount per volume that the medium holds.

(Values after patent EP0423240B1, “MODULATION OF VIRUS-HOST CELL INTERACTIONS USING CYCLIC OLIGOSACCHARIDES” (THE TRUSTEES OF THE UNIVERSITY OF PENNSYLVANIA, priority 1988, dated 1990).)
